In patent US4920103A, “Modifications of mycinose and 3-O-demethylmycinose in tylosin-type macrolides” (Eli Lilly and Company, priority 1986, dated 1990):
Values after ≈ are worked out from the molar mass of the structure shown. Values joined by “and” are separate entries in the source; they are usually repeats but may differ in a detail not shown here. Equal entries are not always repeated. Where two headings read alike, the source gives them in different places.

Key:
[1] = system: Streptococcus pyogenes C203; test: MIC, standard agar-dilution assay, S. pyogenes C203; format: cell-based
Procedure: (§1) The MIC's in Table II were determined by standard agar-dilution assays. The MIC's in Table III were obtained using conventional broth-dilution microtiter tests.

[2] = system: Mycoplasma gallisepticum 29C; test: MIC, broth-dilution microtiter test, M. gallisepticum 29C; format: cell-based; settings: Mycoplasmoides gallisepticum
Procedure: as §1

[3] = system: Pasteurella multocida 17E; test: MIC, broth-dilution microtiter test, P. multocida 17E; format: cell-based
Procedure: as §1

Mycoplasma synoviae 40A = test: MIC, broth-dilution microtiter test, M. synoviae 40A; format: cell-based
Procedure: as §1

[4] = system: Pasteurella multocida 68C; test: MIC, broth-dilution microtiter test, P. multocida 68C; format: cell-based
Procedure: as §1

[5] = system: Staphylococcus aureus S13E; test: MIC, standard agar-dilution assay, S. aureus S13E; format: cell-based
Procedure: as §1

[6] = system: Pasteurella multocida 60A; test: MIC, broth-dilution microtiter test, P. multocida 60A; format: cell-based
Procedure: as §1

[7] = system: Klebsiella pneumoniae X68; test: MIC, standard agar-dilution assay, K. pneumoniae X68; format: cell-based
Procedure: as §1

[8] = system: Bordetella bronchiseptica; test: MIC, broth-dilution microtiter test, B. bronchiseptica; format: cell-based
Procedure: as §1

[9] = system: Pseudomonas aeruginosa X239; test: MIC, standard agar-dilution assay, P. aeruginosa X239; format: cell-based
Procedure: as §1

Streptococcus sp. 19F = test: MIC, broth-dilution microtiter test, Streptococcus sp. 19F; format: cell-based
Procedure: as §1

[10] = system: Staphylococcus aureus V41; test: MIC, standard agar-dilution assay, S. aureus V41; format: cell-based
Procedure: as §1

[11] = system: Staphylococcus aureus X1.1; test: MIC, standard agar-dilution assay, S. aureus X1.1; format: cell-based
Procedure: as §1

[12] = system: Haemophilus influenzae C.L.; test: MIC, standard agar-dilution assay, H. influenzae C.L.; format: cell-based
Procedure: as §1

Staphylococcus aureus = test: MIC, broth-dilution microtiter test, S. aureus; format: cell-based
Procedure: as §1

[13] = system: Mycoplasma gallisepticum 15E; test: MIC, broth-dilution microtiter test, M. gallisepticum 15E; format: cell-based; settings: Mycoplasmoides gallisepticum
Procedure: as §1

[14] = system: Staphylococcus epidermidis EPI1; test: MIC, standard agar-dilution assay, S. epidermidis EPI1; format: cell-based
Procedure: as §1

[15] = system: Streptococcus pneumoniae Park I; test: MIC, standard agar-dilution assay, S. pneumoniae Park I; format: cell-based
Procedure: as §1

Escherichia coli EC14 = test: MIC, standard agar-dilution assay, E. coli EC14; format: cell-based
Procedure: as §1

[16] = system: Pasteurella hemolytica 23C; test: MIC, broth-dilution microtiter test, P. hemolytica 23C; format: cell-based
Procedure: as §1

[17] = system: Pasteurella multocida 22A; test: MIC, broth-dilution microtiter test, P. multocida 22A; format: cell-based
Procedure: as §1

[18] = system: Streptococcus Group D 2041; test: MIC, standard agar-dilution assay, Streptococcus Group D 2041; format: cell-based
Procedure: as §1

Mycoplasma hyorhinis 29E = test: MIC, broth-dilution microtiter test, M. hyorhinis 29E; format: cell-based
Procedure: as §1

[19] = system: Pasteurella hemolytica 22C; test: MIC, broth-dilution microtiter test, P. hemolytica 22C; format: cell-based
Procedure: as §1

[20] = system: Pasteurella hemolytica 41D; test: MIC, broth-dilution microtiter test, P. hemolytica 41D; format: cell-based
Procedure: as §1

[21] = system: Staphylococcus aureus X400; test: MIC, standard agar-dilution assay, S. aureus X400; format: cell-based
Procedure: as §1

[22] = system: Pasteurella multocida 40G; test: MIC, broth-dilution microtiter test, P. multocida 40G; format: cell-based
Procedure: as §1

[23] = system: Mycoplasma hyopneumoniae S5972; test: MIC, broth-dilution microtiter test, M. hyopneumoniae S5972; format: cell-based
Procedure: as §1

[24] = system: Streptococcus pyogenes C203; test: Protection of mice experimentally infected with Streptococcus pyogenes C203; format: in vivo; settings: doses given 1 and 4 hours postinfection
Procedure: The formula 1 compounds have shown in vivo antimicrobial activity against experimentally-induced infections in laboratory animals. When two doses of test compound were administered to mice experimentally infected with Streptococcus pyogenes C203, the activity observed was measured as an ED50 value [effective dose in mg/kg to protect 50% of the test animals: see Warren Wick, et al., J. Bacteriol. 81, 233-235 (1961)].
^a mg/kg × 2; doses given 1 and 4 hours postinfection

[25] = system: Streptococcus Group D X66; test: MIC, standard agar-dilution assay, Streptococcus Group D X66; format: cell-based
Procedure: as §1

[26] = system: Haemophilus influenzae 76; test: MIC, standard agar-dilution assay, H. influenzae 76; format: cell-based
Procedure: as §1

[27] = system: Mycoplasma gallisepticum 36H; test: MIC, broth-dilution microtiter test, M. gallisepticum 36H; format: cell-based; settings: Mycoplasmoides gallisepticum
Procedure: as §1

[28] = system: Staphylococcus epidermidis 222; test: MIC, standard agar-dilution assay, S. epidermidis 222; format: cell-based
Procedure: as §1

[29] = Streptococcus pyogenes, C203, oral, read-out: ED50
[30] = Streptococcus pyogenes, C203, sc, subcutaneous, read-out: ED50
[31] = broth-dilution microtiter, read-out: MIC

CCC1OC(=O)CC(O)C(C)C(OC2OC(C)C(O)C(N(C)C)C2O)C(CCOc2ccccc2)CC(C)C(=O)C=CC(C)=CC1COC1OC(C)CC(OC)C1OC (stereo not drawn) [Compound 11, 4"-Deoxy-20-DH-20-O-phenyl-desmycosin]
MIC ([1]; Streptococcus pyogenes, C203): 0.25 µg/mL (≈ 0.3 µM)
MIC [2]: 0.39 µg/mL (≈ 0.468 µM)
MIC ([3]; Pasteurella multocida, 17E): 25 µg/mL (≈ 30 µM)
MIC (Mycoplasma synoviae 40A; Mycoplasmopsis synoviae, 40A): 1.56 µg/mL (≈ 1.87 µM)
MIC [4]: 12.5 µg/mL (≈ 15 µM)
MIC [5]: 0.25 µg/mL (≈ 0.3 µM)
MIC [6]: 25 µg/mL (≈ 30 µM)
MIC [7]: > 128 µg/mL
MIC [8]: > 50 µg/mL
MIC [9]: > 128 µg/mL
MIC (Streptococcus sp. 19F; Streptococcus, SP.19F): 12.5 µg/mL (≈ 15 µM)
MIC ([10]; Staphylococcus aureus, V41): 0.25 µg/mL (≈ 0.3 µM)
MIC [11]: 0.25 µg/mL (≈ 0.3 µM)
MIC [12]: 32 µg/mL (≈ 38.4 µM)
MIC (Staphylococcus aureus): 0.78 µg/mL (≈ 0.935 µM)
MIC [13]: 12.5 µg/mL (≈ 15 µM)
MIC [14]: 0.25 µg/mL (≈ 0.3 µM)
MIC ([15]; Streptococcus pneumoniae): 0.25 µg/mL (≈ 0.3 µM)
MIC (Escherichia coli EC14): > 128 µg/mL
MIC [16]: 25 µg/mL (≈ 30 µM)
MIC [17]: 25 µg/mL (≈ 30 µM)
MIC ([18]; GROUPD2041): 4 µg/mL (≈ 4.8 µM)
MIC (Mycoplasma hyorhinis 29E; Mycoplasma, 29E): 25 µg/mL (≈ 30 µM)
MIC [19]: 25 µg/mL (≈ 30 µM)
MIC [20]: 25 µg/mL (≈ 30 µM)
MIC [21]: 0.25 µg/mL (≈ 0.3 µM)
MIC [22]: 25 µg/mL (≈ 30 µM)
MIC ([23]; Mesomycoplasma hyopneumoniae, S5972): > 25 µg/mL
ED50 [24, 29]: 34 mg/kg
ED50 [24, 30]: 10 mg/kg
MIC [25]: 2 µg/mL (≈ 2.4 µM)
MIC [26]: 32 µg/mL (≈ 38.4 µM)
MIC [27]: 25 µg/mL (≈ 30 µM)
MIC ([28]; agar-dilution, read-out: MIC): 0.125 µg/mL (≈ 0.15 µM)

CCC1OC(=O)CC(O)C(C)C(OC2OC(C)C(O)C(N(C)C)C2O)C(CCOc2ccccc2)CC(C)C(=O)C=CC(C)=CC1COC1OC(C)C(OC)C(OC)C1OC (stereo not drawn) [Compound 13, 4"-O-Methyl-20-DH-20-O-phenyl-desmycosin]
MIC ([1]; agar-dilution): 4 µg/mL (≈ 4.63 µM)
MIC ([3]; broth-dilution microtiter, bovine isolate): -- (not active at 50 mcg/mL)
MIC (Mycoplasma synoviae 40A; broth-dilution microtiter): 6.25 µg/mL (≈ 7.23 µM)
MIC (Streptococcus sp. 19F; broth-dilution microtiter): 6.25 µg/mL (≈ 7.23 µM)
MIC ([10]; agar-dilution, penicillin-resistant strain): 2 µg/mL (≈ 2.31 µM)
MIC ([15]; agar-dilution): 4 µg/mL (≈ 4.63 µM)
MIC ([18]; agar-dilution): 16 µg/mL (≈ 18.5 µM)
MIC (Mycoplasma hyorhinis 29E; broth-dilution microtiter): 25 µg/mL (≈ 28.9 µM)
MIC ([23]; broth-dilution microtiter): > 25 µg/mL
ED50 ([24]; oral): 18.8 mg/kg × 2 and 22.4 mg/kg × 2
ED50 ([24]; subcutaneous): > 10 mg/kg × 2
MIC ([25]; agar-dilution): 16 µg/mL (≈ 18.5 µM)

CCC1OC(=O)CC(O)C(C)C(OC2OC(C)C(O)C(N(C)C)C2O)C(CCOc2ccccc2)CC(C)C(=O)C=CC(C)=CC1COC1OC(C)C(N)C(OC)C1OC (stereo not drawn) [Compound 21, 4"-Amino-4"-deoxy-20-DH-20-O-phenyl-desmycosin]
MIC ([1]; Streptococcus pyogenes, C203): 0.5 µg/mL (≈ 0.589 µM)
MIC [2, 31]: 1.56 µg/mL (≈ 1.84 µM)
MIC ([3]; Pasteurella multocida, 17E, broth-dilution microtiter, bovine isolate, read-out: MIC): 25 µg/mL (≈ 29.4 µM)
MIC [4, 31]: 12.5 µg/mL (≈ 14.7 µM)
MIC [5]: 0.25 µg/mL (≈ 0.294 µM)
MIC ([6]; broth-dilution microtiter, avian isolate, read-out: MIC): 12.5 µg/mL (≈ 14.7 µM)
MIC ([7]; agar-dilution, read-out: MIC): > 128 µg/mL
MIC [8, 31]: > 50 µg/mL
MIC ([9]; agar-dilution, read-out: MIC): > 128 µg/mL
MIC (Streptococcus sp. 19F; Streptococcus, SP.19F, broth-dilution microtiter, read-out: MIC): 3.12 µg/mL (≈ 3.67 µM)
MIC ([10]; Staphylococcus aureus, V41): 0.5 µg/mL (≈ 0.589 µM)
MIC [11]: 0.25 µg/mL (≈ 0.294 µM)
MIC [12]: 32 µg/mL (≈ 37.7 µM)
MIC (Staphylococcus aureus): 0.39 µg/mL (≈ 0.459 µM)
MIC [13, 31]: > 50 µg/mL
MIC [14]: 0.5 µg/mL (≈ 0.589 µM)
MIC ([15]; Streptococcus pneumoniae, agar-dilution, read-out: MIC): 1 µg/mL (≈ 1.18 µM)
MIC (Escherichia coli EC14; agar-dilution, read-out: MIC): > 128 µg/mL
MIC [16, 31]: 25 µg/mL (≈ 29.4 µM)
MIC [17, 31]: 12.5 µg/mL (≈ 14.7 µM)
MIC ([18]; GROUPD2041, agar-dilution, read-out: MIC): 8 µg/mL (≈ 9.42 µM)
MIC [19, 31]: 25 µg/mL (≈ 29.4 µM)
MIC [20, 31]: 12.5 µg/mL (≈ 14.7 µM)
MIC [21]: 0.25 µg/mL (≈ 0.294 µM)
MIC [22, 31]: 6.25 µg/mL (≈ 7.36 µM)
MIC ([23]; Mesomycoplasma hyopneumoniae, S5972, broth-dilution microtiter, read-out: MIC): 50 µg/mL (≈ 58.9 µM)
ED50 [24, 29]: 57.4 mg/kg
ED50 [24, 30]: > 10 mg/kg
MIC [25]: 4 µg/mL (≈ 4.71 µM)
MIC [26]: 16 µg/mL (≈ 18.8 µM)
MIC [27, 31]: > 50 µg/mL
MIC [28]: 0.25 µg/mL (≈ 0.294 µM)
